# Reference: US7291740B2, “5-[4-[2-(N-methyl-N-(2-pyridyl)amino)ethoxy]benzyl]thiazolidine-2,4-dione Mesylate salt” (SmithKline Beecham p.l.c., priority 2000, dated 2007)
# Like-named read-outs stand apart in the source and are kept apart here.
# Assay: Solubility of the Mesylate in water (aliquot addition until the powder dissolved)
# Format: physicochemical
# Text: The visual solubility was confirmed by an HPLC assay of a saturated solution.
SMILES,"Solubility (water, visual dissolution (Form IV confirmed by HPLC assay of a saturated solution))",Solubility
"CN(CCOc1ccc(CC2SC(=O)NC2=O)cc1)c1ccccn1.CS(=O)(=O)O (stereo not shown) [Example 1, 5-[4-[2-(N-methyl-N-(2-pyridyl)amino)ethoxy]benzyl]thiazolidine-2,4-dione methanesulfonate Form I]",> 100 mg/mL,
"CN(CCOc1ccc(CC2SC(=O)NC2=O)cc1)c1ccccn1.CS(=O)(=O)O (stereo not shown) [Example 3, 5-[4-[2-(N-methyl-N-(2-pyridyl)amino)ethoxy]benzyl]thiazolidine-2,4-dione methanesulfonate Form II]",,> 100 mg/mL
"CN(CCOc1ccc(CC2SC(=O)NC2=O)cc1)c1ccccn1.CS(=O)(=O)O (stereo not shown) [Example 4, 5-[4-[2-(N-methyl-N-(2-pyridyl)amino)ethoxy]benzyl]thiazolidine-2,4-dione methanesulfonate Form III]",,> 100 mg/mL
"CN(CCOc1ccc(CC2SC(=O)NC2=O)cc1)c1ccccn1.CS(=O)(=O)O (stereo not shown) [Example 11, 5-[4-[2-(N-methyl-N-(2-pyridyl)amino)ethoxy]benzyl]thiazolidine-2,4-dione methanesulfonate Form IV]",,> 100 mg/mL
